The values that follow come from patent US6770599B2, “Tetrazole derivatives” (Bayer CropScience KK, priority 2000, dated 2004).

What is called melting point is the temperature, or range, at which the solid turns liquid.

SMILES strings stand for the structures.

Data set [1] concerns Lindernia pyridaria (flasepimpernel). Description: Test Example 5: synergistic action by water surface application, LIDPY. Format: in vivo. Particulars: 75 g a.i./ha, run6, 4 weeks after application. The text has this: (§1) Test for Synergistic Action by Water Sureface Application
(§2) In a greenhouse, paddy soil was filled in pots (250 cm^2), and seeds of weed (barnyardgrass, bulrush, monochoria, falsepimpemel, indian toothcup, waterwort and flatstage) were inoculated in the surface layer of the soil in the pots under wet conditions and covered with soil. All of the weed species were individually inoculated in each pot. Each pot was watered to 2 cm in depth and the depth was kept during the test period. When the weeds grew up to 1.5-2.2 leaf stage (or pair), a predetermined amount of the compound as a testing solution prepared in the same manner as the above-mentioned Test Example 4 was applied to the pots by water surface treatment method. The herbicidal effect was evaluated at 4 weeks after the application on the same scale as in thetest method of Test Example 4.
(§3) Synergistic action of Test Example 4 and Test Example 5 were evaluated by Colby's equation. [formula]
(§4) E: expected herbicidal activity at p+q g/ha
(§5) X: the percentage of herbicidal activity at p g/ha
(§6) Y: the percentage of herbicidal activity at q g/ha

The test system of data set [2] is Rotala indica (indian toothcup). Kind of data set: Test Example 5: synergistic action by water surface application, ROTIN. Format: in vivo. As to conditions: 75 g a.i./ha, run6, 4 weeks after application.
Excerpt: as §1, §2, §3, §4, §5, §6

`CCC1(CC2(c3cccc(Cl)c3)CO2)C(=O)c2ccccc2C1=O` (racemic) [G, (RS)-2-[2-(3-chlorophenyl)2,3-epoxypropyl]-2-ethylindan-1,3-dione]: the “Herbicidal efficacy, known herbicide” value in data set [1] and in data set [2] was 60% each time. In turn, `Cn1nnnc1SCc1c(S(C)(=O)=O)ccc(C(=O)C2=C(Sc3ccccc3)CCCC2=O)c1Cl` displayed a melting point of 76 to 87 °C. Molecule `CCn1nnnc1SCc1c(S(C)(=O)=O)ccc(C(=O)C2C(=O)CCCC2=O)c1Cl` came in with a melting point of 67 to 71 °C.
